Results reported in PubChem BioAssay (NCI).
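The compound was tested at five concentrations on cells cultured in 96-well plates, with a 48-hour exposure period. Definition used: TGI = concentration required for complete inhibition of growth.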

Experiments:
Assay in all cases: NCI tumour cell line growth inhibition, 48 h
[1] = system: LOX IMVI melanoma
[2] = system: HCT-116 colon
[3] = system: HOP-62 NSCLC
[4] = system: SF-268 CNS
[5] = system: OVCAR-8 ovarian
[6] = system: UO-31 renal
[7] = system: NCI-H23 lung
[8] = system: CAKI-1 renal
[9] = system: NCI-H226 lung
[10] = system: A549 NSCLC
[11] = system: SK-MEL-28 melanoma
[12] = system: DMS 273 small cell lung
[13] = system: OVCAR-3 ovarian
[14] = system: SR leukemia
[15] = system: SK-MEL-2 melanoma
[16] = system: NCI-H522 lung
[17] = system: SF-295 CNS
[18] = system: SN12C renal
[19] = system: EKVX NSCLC
[20] = system: MOLT-4 leukemia
[21] = system: KM20L2 colon
[22] = system: SW-620 colon
[23] = system: XF 498 CNS
[24] = system: COLO 205 colon
[25] = system: DMS 114 small cell lung
[26] = system: HCC-2998 colon
[27] = system: SNB-78 CNS
[28] = system: SF-539 CNS
[29] = system: ACHN renal
[30] = system: MALME-3M melanoma
[31] = system: 786-0 renal
[32] = system: IGROV1 ovarian
[33] = system: HT29 colon
[34] = system: RPMI-8226 leukemia
[35] = system: M19-MEL melanoma
[36] = system: CCRF-CEM leukemia
[37] = system: NCI-H460 lung
[38] = system: SK-OV-3 ovarian
[39] = system: HCT-15 colon
[40] = system: M14 melanoma
[41] = system: KM12 colon
[42] = system: SNB-19 CNS
[43] = system: U251 CNS
[44] = system: HL-60(TB) leukemia
[45] = system: UACC-257 melanoma
[46] = system: K-562 leukemia
[47] = system: TK-10 renal
[48] = system: OVCAR-4 ovarian
[49] = system: OVCAR-5 ovarian
[50] = system: MDA-MB-435
[51] = system: HOP-92 NSCLC
[52] = system: RXF 393 renal
[53] = system: SK-MEL-5 melanoma
[54] = system: HS 578T breast
[55] = system: BT-549 breast
[56] = system: NCI/ADR-RES ovarian
[57] = system: SNB-75 CNS
[58] = system: MDA-MB-231 breast
[59] = system: DU-145 prostate
[60] = system: MCF7 breast
[61] = system: UACC-62 melanoma
[62] = system: T-47D breast
[63] = system: A498 renal
[64] = system: PC-3 prostate
[65] = system: MDA-N

Molecule `CNc1ccc([N+](=O)[O-])c2c(NCCCN(C)C)ccnc12` has a TGI [1] of over 100 µM, a TGI [2] of over 100 µM and a TGI [3] of over 100 µM. It also gave a TGI [4] of over 100 µM, a TGI [5] of over 100 µM and a TGI [6] of over 100 µM. For the same molecule, the TGI [7] was over 100 µM, the TGI [8] was over 100 µM and the TGI [9] was over 100 µM. It also gave a TGI [10] of over 100 µM, a TGI [11] of over 100 µM and a TGI [12] of over 100 µM. It also gave a TGI [13] of over 100 µM, a TGI [14] of over 100 µM and a TGI [15] of over 100 µM. It also gave a TGI [16] of over 100 µM, a TGI [17] of over 100 µM and a TGI [18] of over 100 µM. It also gave a TGI [19] of over 100 µM, a TGI [20] of over 100 µM and a TGI [21] of over 100 µM. For the same molecule, the TGI [22] was over 100 µM, the TGI [23] was over 100 µM and the TGI [24] was over 100 µM. The TGI [25] was over 100 µM, the TGI [26] was over 100 µM and the TGI [27] was over 100 µM. For the same molecule, the TGI [28] was over 100 µM, the TGI [29] was over 100 µM and the TGI [30] was over 100 µM. It also gave a TGI [31] of over 100 µM, a TGI [32] of over 100 µM and a TGI [33] of over 100 µM. For the same molecule, the TGI [34] was over 100 µM, the TGI [35] was over 100 µM and the TGI [36] was over 100 µM. The TGI [37] was over 100 µM, the TGI [38] was over 100 µM and the TGI [39] was over 100 µM. For the same molecule, the TGI [40] was over 100 µM, the TGI [41] was over 100 µM and the TGI [42] was over 100 µM. The TGI [43] was over 100 µM, the TGI [44] was over 100 µM and the TGI [45] was over 100 µM. For the same molecule, the TGI [46] was over 100 µM, the TGI [47] was over 100 µM and the TGI [48] was over 100 µM. It also gave a TGI [49] of over 100 µM.

With `CC(=O)OCC1OC(SC2=NC(=O)/C(=C/c3ccccc3)S2)C(OC(C)=O)C(OC(C)=O)C1OC(C)=O` (configuration not stated) the TGI [1] was 42.9 µM, the TGI [50] was 38.8 µM and the TGI [2] was over 100 µM. It also gave a TGI [3] of over 100 µM, a TGI [4] of 52.3 µM and a TGI [5] of 31.7 µM. It also gave a TGI [6] of 52.8 µM, a TGI [51] of 44.2 µM and a TGI [7] of over 100 µM. For the same molecule, the TGI [8] was 12 µM, the TGI [9] was 95 µM and the TGI [52] was 67.6 µM. For the same molecule, the TGI [10] was over 100 µM, the TGI [53] was 42.8 µM and the TGI [11] was over 100 µM. It also gave a TGI [13] of 44.4 µM, a TGI [14] of 51.5 µM and a TGI [15] of over 100 µM. The TGI [16] was 80.6 µM, the TGI [17] was over 100 µM and the TGI [54] was 75.7 µM. The TGI [55] was 78.9 µM, the TGI [56] was 84 µM and the TGI [18] was over 100 µM. For the same molecule, the TGI [19] was 70.4 µM, the TGI [20] was 54.5 µM and the TGI [22] was 74.1 µM. For the same molecule, the TGI [57] was 44.7 µM, the TGI [24] was over 100 µM and the TGI [58] was 44.5 µM. It also gave a TGI [26] of over 100 µM, a TGI [28] of 45.7 µM and a TGI [59] of over 100 µM. It also gave a TGI [60] of 52.2 µM, a TGI [61] of 87.2 µM and a TGI [62] of over 100 µM. For the same molecule, the TGI [29] was over 100 µM, the TGI [30] was 70.5 µM and the TGI [31] was 30.8 µM. It also gave a TGI [32] of over 100 µM, a TGI [33] of over 100 µM and a TGI [34] of 66.3 µM. The TGI [36] was 94.4 µM, the TGI [63] was 81.2 µM and the TGI [64] was over 100 µM. The TGI [37] was over 100 µM, the TGI [38] was over 100 µM and the TGI [39] was over 100 µM. It also gave a TGI [40] of over 100 µM, a TGI [41] of over 100 µM and a TGI [42] of over 100 µM. The TGI [43] was 91 µM, the TGI [44] was 31.3 µM and the TGI [45] was over 100 µM. For the same molecule, the TGI [65] was over 100 µM, the TGI [48] was over 100 µM and the TGI [49] was over 100 µM.

`O=C1CCCCN1C(=O)c1ccc([N+](=O)[O-])cc1` showed a TGI [1] of over 100 µM, a TGI [50] of over 100 µM and a TGI [2] of over 100 µM. For the same molecule, the TGI [3] was over 100 µM, the TGI [4] was over 100 µM and the TGI [5] was over 100 µM. For the same molecule, the TGI [6] was over 100 µM, the TGI [51] was over 100 µM and the TGI [7] was over 100 µM. The TGI [8] was over 100 µM, the TGI [9] was over 100 µM and the TGI [52] was over 100 µM. It also gave a TGI [10] of over 100 µM, a TGI [53] of over 100 µM and a TGI [11] of over 100 µM. It also gave a TGI [13] of over 100 µM, a TGI [14] of over 100 µM and a TGI [16] of over 100 µM. The TGI [17] was over 100 µM, the TGI [54] was over 100 µM and the TGI [55] was over 100 µM. The TGI [56] was over 100 µM, the TGI [18] was over 100 µM and the TGI [19] was over 100 µM. It also gave a TGI [20] of over 100 µM, a TGI [22] of over 100 µM and a TGI [57] of over 100 µM. The TGI [58] was over 100 µM, the TGI [26] was over 100 µM and the TGI [28] was over 100 µM. The TGI [59] was over 100 µM, the TGI [60] was over 100 µM and the TGI [61] was over 100 µM. It also gave a TGI [62] of over 100 µM, a TGI [29] of over 100 µM and a TGI [30] of over 100 µM. It also gave a TGI [31] of over 100 µM, a TGI [32] of over 100 µM and a TGI [33] of over 100 µM. The TGI [34] was over 100 µM, the TGI [36] was over 100 µM and the TGI [63] was over 100 µM. For the same molecule, the TGI [64] was over 100 µM, the TGI [37] was over 100 µM and the TGI [39] was over 100 µM. It also gave a TGI [40] of over 100 µM, a TGI [41] of over 100 µM and a TGI [42] of over 100 µM. For the same molecule, the TGI [43] was over 100 µM, the TGI [44] was over 100 µM and the TGI [45] was over 100 µM. For the same molecule, the TGI [46] was over 100 µM, the TGI [47] was over 100 µM and the TGI [65] was over 100 µM. It also gave a TGI [48] of over 100 µM and a TGI [49] of over 100 µM.
